Laboratory results published in PubChem BioAssay AID248 (DTP/NCI, 2004).
Values joined by “and” are separate entries in the source; they are usually repeats but may differ in a detail not shown here. Identical values can stand only once. Toxic doses and inconclusive results are not listed. No stated cut-off is given here; in the data, active means T/C of 150% or more; inactive means T/C below 125%.

Tested on: L1210 leukemia ip in BDF1 mice, survival T/C
Experiment: NCI In Vivo Anticancer Drug Screen. Data for tumor model L1210 Leukemia (intraperitoneal) in B6D2F1 (BDF1) mice
Details: endpoint: mean survival time, higher = longer survival
Outline: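 Transplantable tumor model; survival measured in treated vs vehicle control mice. Value = treated/control.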

[1] = dose: 100.0 mg/kg/injection, schedule: Q01DX001 (ip), vehicle: saline with Tween-80
[2] = dose: 200.0 mg/kg/injection, schedule: Q01DX001 (ip), vehicle: saline with Tween-80
[3] = dose: 400.0 mg/kg/injection, schedule: Q01DX001 (ip), vehicle: saline with Tween-80
[4] = dose: 100.0 mg/kg/injection, schedule: Q01DX009 (ip), vehicle: Klucel (hydroxypropylcellulose) (HPC)
[5] = dose: 100.0 mg/kg/injection, schedule: Q04DX002 (ip), vehicle: Klucel (hydroxypropylcellulose) (HPC)
[6] = dose: 200.0 mg/kg/injection, schedule: Q04DX002 (ip), vehicle: Klucel (hydroxypropylcellulose) (HPC)
[7] = dose: 400.0 mg/kg/injection, schedule: Q04DX002 (ip), vehicle: Klucel (hydroxypropylcellulose) (HPC)
[8] = dose: 100.0 mg/kg/injection, schedule: Q04DX003 (ip), vehicle: saline with Tween-80
[9] = dose: 200.0 mg/kg/injection, schedule: Q04DX003 (ip), vehicle: saline with Tween-80
[10] = dose: 400.0 mg/kg/injection, schedule: Q04DX003 (ip), vehicle: saline with Tween-80
[11] = dose: 200.0 mg/kg/injection, schedule: Q01DX009 (ip), vehicle: Klucel (hydroxypropylcellulose) (HPC)
[12] = dose: 400.0 mg/kg/injection, schedule: Q01DX009 (ip), vehicle: Klucel (hydroxypropylcellulose) (HPC)
[13] = dose: 100.0 mg/kg/injection, schedule: Q04DX003 (ip), vehicle: Klucel (hydroxypropylcellulose) (HPC)
[14] = dose: 200.0 mg/kg/injection, schedule: Q04DX003 (ip), vehicle: Klucel (hydroxypropylcellulose) (HPC)
[15] = dose: 400.0 mg/kg/injection, schedule: Q04DX003 (ip), vehicle: Klucel (hydroxypropylcellulose) (HPC)
[16] = dose: 100.0 mg/kg/injection, schedule: Q01DX001 (ip), vehicle: carboxymethylcellulose (CMC)
[17] = dose: 200.0 mg/kg/injection, schedule: Q01DX001 (ip), vehicle: carboxymethylcellulose (CMC)
[18] = dose: 400.0 mg/kg/injection, schedule: Q01DX001 (ip), vehicle: carboxymethylcellulose (CMC)
[19] = dose: 100.0 mg/kg/injection, schedule: Q04DX003 (ip), vehicle: saline
[20] = dose: 200.0 mg/kg/injection, schedule: Q04DX003 (ip), vehicle: saline
[21] = dose: 400.0 mg/kg/injection, schedule: Q04DX003 (ip), vehicle: saline

Measured: T/C

CNc1ccc(C(=O)O)c(Cl)c1
inactive: dose: 75.0 mg/kg/injection, schedule: Q01DX001 (ip), vehicle: saline 95 % of control | dose: 75.0 mg/kg/injection, schedule: Q04DX003 (ip), vehicle: saline 97 % of control | dose: 150.0 mg/kg/injection, schedule: Q01DX001 (ip), vehicle: saline 98 % of control | dose: 150.0 mg/kg/injection, schedule: Q04DX003 (ip), vehicle: saline 111 % of control | dose: 300.0 mg/kg/injection, schedule: Q01DX001 (ip), vehicle: saline 93 % of control | dose: 300.0 mg/kg/injection, schedule: Q04DX003 (ip), vehicle: saline 103 % of control

Cc1ccc(C)c2c(CC(=O)O)c[nH]c12
inactive: [1] 100 % of control | [2] 107 % of control | [3] 102 % of control

O=C(O)c1ccc(OC(F)(F)C(F)Cl)cc1 (stereo not given)
inactive: dose: 50.0 mg/kg/injection, schedule: Q01DX009 (ip), vehicle: Klucel (hydroxypropylcellulose) (HPC) 100 % of control | [4] 98 % of control

CC(C)(C)C1SCC(=NNc2ccc([N+](=O)[O-])cc2[N+](=O)[O-])CS1 (stereo not given)
inactive: dose: 12.5 mg/kg/injection, schedule: Q04DX002 (ip), vehicle: gum acacia 95 % of control | dose: 25.0 mg/kg/injection, schedule: Q04DX002 (ip), vehicle: gum acacia 98 % of control | dose: 50.0 mg/kg/injection, schedule: Q04DX002 (ip), vehicle: gum acacia 95 % of control

COC(=O)CCCCn1ccc(=O)[nH]c1=O
inactive: [5] 100 % of control | [6] 104 % of control | [7] 100 % of control

CCOP(=O)(OCC)Oc1ccc(SC)cc1
inactive: dose: 5.0 mg/kg/injection, schedule: Q01DX001 (ip), vehicle: saline 96 % of control | dose: 10.0 mg/kg/injection, schedule: Q01DX001 (ip), vehicle: saline 98 % of control

OC1C2CCC(C2)C1C(O)(C(F)(F)Cl)C(F)(F)Cl (stereo not given)
inactive: [8] 93 % of control | [9] 92 % of control | [10] 97 % of control

Cc1ccc(CNC(=O)C2CCCCC2C(=O)O)cc1 (stereo not given)
inactive: [4] 100 % of control | [11] 96 % of control | [12] 93 % of control

O=C(Cl)c1ccc(OC(Cl)(Cl)Cl)cc1
inactive: [13] 109 % of control | [11] 100 % of control | [14] 92 % of control | [12] 95 % of control | [15] 94 % of control

COc1ccc(C2CCCCC2OS(C)(=O)=O)cc1 (stereo not given)
inactive: [16] 97 % of control | [17] 106 % of control | [18] 95 % of control

CCN(Cc1ccccc1)c1nnnn1-c1ccccc1
inactive: [19] 96 % of control | [20] 103 % of control | [21] 98 % of control

CCCOC(=O)NCCSC(=O)OCCC
inactive: [1] 95 % of control | [2] 95 % of control | [3] 108 % of control

C=CCc1c(F)c(F)c(F)c(F)c1F
inactive: [8] 97 % of control | [9] 95 % of control | [10] 98 % of control

C=CCC[P+](c1ccccc1)(c1ccccc1)c1ccccc1
inactive: dose: 12.5 mg/kg/injection, schedule: Q04DX003 (ip), vehicle: Klucel (hydroxypropylcellulose) (HPC) 97 % of control | dose: 16.0 mg/kg/injection, schedule: Q04DX003 (ip), vehicle: Klucel (hydroxypropylcellulose) (HPC) 90 % of control | dose: 25.0 mg/kg/injection, schedule: Q04DX003 (ip), vehicle: Klucel (hydroxypropylcellulose) (HPC) 104 % of control | dose: 35.0 mg/kg/injection, schedule: Q04DX003 (ip), vehicle: Klucel (hydroxypropylcellulose) (HPC) 101 % of control | dose: 50.0 mg/kg/injection, schedule: Q04DX003 (ip), vehicle: Klucel (hydroxypropylcellulose) (HPC) 95 % of control and 103 % of control

NC(N)=N/N=C(/c1ccccc1)c1ccccc1N
inactive: dose: 15.0 mg/kg/injection, schedule: Q01DX Z (ip), vehicle: methylcellulose (MC) 105 % of control | dose: 30.0 mg/kg/injection, schedule: Q01DX Z (ip), vehicle: methylcellulose (MC) 102 % of control | dose: 60.0 mg/kg/injection, schedule: Q01DX Z (ip), vehicle: methylcellulose (MC) 105 % of control | dose: 120.0 mg/kg/injection, schedule: Q01DX Z (ip), vehicle: methylcellulose (MC) 97 % of control | dose: 120.0 mg/kg/injection, schedule: Q01DX Z (oral), vehicle: methylcellulose (MC) 88 % of control | dose: 240.0 mg/kg/injection, schedule: Q01DX Z (ip), vehicle: methylcellulose (MC) 88 % of control | dose: 240.0 mg/kg/injection, schedule: Q01DX Z (oral), vehicle: methylcellulose (MC) 98 % of control | dose: 480.0 mg/kg/injection, schedule: Q01DX Z (oral), vehicle: methylcellulose (MC) 101 % of control

CCOC(=O)CNc1ccc(C)c(F)c1
inactive: dose: 25.0 mg/kg/injection, schedule: Q04DX002 (ip), vehicle: Klucel (hydroxypropylcellulose) (HPC) 98 % of control | dose: 50.0 mg/kg/injection, schedule: Q04DX002 (ip), vehicle: Klucel (hydroxypropylcellulose) (HPC) 98 % of control | [5] 97 % of control and 109 % of control

Cc1cc2c(cc1C)C1(c3ccccc3)OC1(c1ccccc1)C2=O (stereo not given)
inactive: [1] 95 % of control | [2] 88 % of control | [3] 92 % of control

CCOC1=C(C#N)CC2(CC1)c1ccccc1-c1ccccc12
inactive: [4] 96 % of control | [11] 95 % of control | [12] 95 % of control

CCOC(=O)n1cnc2ncnc(SC)c21
inactive: dose: 25.0 mg/kg/injection, schedule: Q01DX015 (ip), vehicle: saline 102 % of control | dose: 50.0 mg/kg/injection, schedule: Q01DX001 (ip), vehicle: carboxymethylcellulose (CMC) 94 % of control and 106 % of control | dose: 50.0 mg/kg/injection, schedule: Q01DX015 (ip), vehicle: saline 96 % of control | [16] 109 % of control and 114 % of control | dose: 100.0 mg/kg/injection, schedule: Q01DX015 (ip), vehicle: saline 103 % of control | [17] 88 % of control | dose: 200.0 mg/kg/injection, schedule: Q01DX015 (ip), vehicle: saline 91 % of control | [18] 109 % of control

BrC1C2C=CCC1CC2 (stereo not given)
inactive: dose: 100.0 mg/kg/injection, schedule: Q01DX009 (ip), vehicle: saline 91 % of control | [19] 96 % of control | dose: 200.0 mg/kg/injection, schedule: Q01DX009 (ip), vehicle: saline 97 % of control | [20] 96 % of control | dose: 400.0 mg/kg/injection, schedule: Q01DX009 (ip), vehicle: saline 94 % of control | [21] 94 % of control

S=C1SCN(C2CCCCCCCCCCC2)CN1C1CCCCCCCCCCC1
inactive: [8] 96 % of control | [9] 91 % of control | [10] 95 % of control

CC1(C(=O)N2c3ccccc3C=CC2C#N)CC2C=CC1C2 (stereo not given)
inactive: [13] 106 % of control | [14] 110 % of control | [15] 123 % of control

O=C(NC(=S)Nc1ccc(Cl)c(Cl)c1)c1cccc([N+](=O)[O-])c1
inactive: [4] 95 % of control | [5] 95 % of control and 97 % of control | [13] 93 % of control | [11] 95 % of control | [6] 93 % of control and 97 % of control | [14] 95 % of control | [12] 92 % of control and 94 % of control | [7] 95 % of control and 102 % of control | [15] 93 % of control

ClC(Cl)(NC1CCCCC1)NC1CCCCC1
inactive: dose: 100.0 mg/kg/injection, schedule: Q01DX001 (ip), vehicle: saline 90 % of control | dose: 200.0 mg/kg/injection, schedule: Q01DX001 (ip), vehicle: saline 91 % of control | dose: 400.0 mg/kg/injection, schedule: Q01DX001 (ip), vehicle: saline 86 % of control

CNC(=O)Nc1ccc(Cl)cn1
inactive: dose: 25.0 mg/kg/injection, schedule: Q01DX009 (ip), vehicle: saline with Tween-80 100 % of control | dose: 50.0 mg/kg/injection, schedule: Q01DX009 (ip), vehicle: saline with Tween-80 97 % of control | dose: 100.0 mg/kg/injection, schedule: Q01DX009 (ip), vehicle: saline with Tween-80 98 % of control and 103 % of control

COc1ccc(C)cc1CN1NC(=O)CC1=N
inactive: [4] 97 % of control | [13] 106 % of control | [11] 101 % of control | [14] 110 % of control | [12] 98 % of control | [15] 102 % of control
